The target of test [1] is T1, Poly [ADP-ribose] polymerase tankyrase-2 (Homo sapiens, UniProt Q9H2K2).
T1 sequence (Q9H2K2 whole entry): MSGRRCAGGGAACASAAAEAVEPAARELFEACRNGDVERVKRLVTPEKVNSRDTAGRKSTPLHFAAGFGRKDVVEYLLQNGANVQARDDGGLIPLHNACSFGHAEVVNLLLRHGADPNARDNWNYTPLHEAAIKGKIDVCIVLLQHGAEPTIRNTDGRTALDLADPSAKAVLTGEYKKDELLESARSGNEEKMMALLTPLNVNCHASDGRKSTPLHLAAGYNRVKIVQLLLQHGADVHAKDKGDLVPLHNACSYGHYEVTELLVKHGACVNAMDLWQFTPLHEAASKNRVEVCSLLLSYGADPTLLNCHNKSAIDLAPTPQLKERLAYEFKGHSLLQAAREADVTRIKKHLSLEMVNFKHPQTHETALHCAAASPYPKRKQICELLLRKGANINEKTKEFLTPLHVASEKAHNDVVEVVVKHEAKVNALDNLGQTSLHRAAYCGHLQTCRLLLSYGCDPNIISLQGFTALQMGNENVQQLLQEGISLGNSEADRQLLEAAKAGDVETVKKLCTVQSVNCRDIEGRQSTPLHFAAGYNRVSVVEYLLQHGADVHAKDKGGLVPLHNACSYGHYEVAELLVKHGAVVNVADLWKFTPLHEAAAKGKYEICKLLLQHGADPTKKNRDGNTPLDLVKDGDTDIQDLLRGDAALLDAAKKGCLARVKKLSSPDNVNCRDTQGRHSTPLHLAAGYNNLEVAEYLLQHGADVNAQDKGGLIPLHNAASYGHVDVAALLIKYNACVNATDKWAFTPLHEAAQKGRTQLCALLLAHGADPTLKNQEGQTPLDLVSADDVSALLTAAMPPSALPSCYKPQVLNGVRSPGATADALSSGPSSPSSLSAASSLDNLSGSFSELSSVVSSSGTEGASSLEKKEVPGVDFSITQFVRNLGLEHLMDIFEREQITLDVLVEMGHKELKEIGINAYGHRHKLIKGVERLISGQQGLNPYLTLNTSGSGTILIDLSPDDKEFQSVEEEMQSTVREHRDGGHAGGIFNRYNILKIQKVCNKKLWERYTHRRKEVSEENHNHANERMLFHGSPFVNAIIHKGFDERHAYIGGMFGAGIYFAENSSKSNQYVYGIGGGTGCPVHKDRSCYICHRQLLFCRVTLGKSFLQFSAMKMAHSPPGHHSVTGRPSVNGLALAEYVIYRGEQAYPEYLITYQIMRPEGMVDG
Nature of the test: Binding affinity to recombinant human N-terminal His-tagged TNKS2 (Ser959 to Gly1166 residues) expressed in Escherichia coli by surface plasmon resonance analysis. (In general: SPR reads the build-up and loss of mass on a sensor chip optically.)

The target in test [2] is Casein kinase II alpha/beta (Homo sapiens, UniProt P67870+P68400). The experiment in a line: Binding affinity to recombinant human CK2alpha/beta expressed in Escherichia coli by surface plasmon resonance analysis.
The target of test [3] is T2, Poly [ADP-ribose] polymerase tankyrase-1 (Homo sapiens, UniProt O95271).
T2 sequence (O95271 whole entry): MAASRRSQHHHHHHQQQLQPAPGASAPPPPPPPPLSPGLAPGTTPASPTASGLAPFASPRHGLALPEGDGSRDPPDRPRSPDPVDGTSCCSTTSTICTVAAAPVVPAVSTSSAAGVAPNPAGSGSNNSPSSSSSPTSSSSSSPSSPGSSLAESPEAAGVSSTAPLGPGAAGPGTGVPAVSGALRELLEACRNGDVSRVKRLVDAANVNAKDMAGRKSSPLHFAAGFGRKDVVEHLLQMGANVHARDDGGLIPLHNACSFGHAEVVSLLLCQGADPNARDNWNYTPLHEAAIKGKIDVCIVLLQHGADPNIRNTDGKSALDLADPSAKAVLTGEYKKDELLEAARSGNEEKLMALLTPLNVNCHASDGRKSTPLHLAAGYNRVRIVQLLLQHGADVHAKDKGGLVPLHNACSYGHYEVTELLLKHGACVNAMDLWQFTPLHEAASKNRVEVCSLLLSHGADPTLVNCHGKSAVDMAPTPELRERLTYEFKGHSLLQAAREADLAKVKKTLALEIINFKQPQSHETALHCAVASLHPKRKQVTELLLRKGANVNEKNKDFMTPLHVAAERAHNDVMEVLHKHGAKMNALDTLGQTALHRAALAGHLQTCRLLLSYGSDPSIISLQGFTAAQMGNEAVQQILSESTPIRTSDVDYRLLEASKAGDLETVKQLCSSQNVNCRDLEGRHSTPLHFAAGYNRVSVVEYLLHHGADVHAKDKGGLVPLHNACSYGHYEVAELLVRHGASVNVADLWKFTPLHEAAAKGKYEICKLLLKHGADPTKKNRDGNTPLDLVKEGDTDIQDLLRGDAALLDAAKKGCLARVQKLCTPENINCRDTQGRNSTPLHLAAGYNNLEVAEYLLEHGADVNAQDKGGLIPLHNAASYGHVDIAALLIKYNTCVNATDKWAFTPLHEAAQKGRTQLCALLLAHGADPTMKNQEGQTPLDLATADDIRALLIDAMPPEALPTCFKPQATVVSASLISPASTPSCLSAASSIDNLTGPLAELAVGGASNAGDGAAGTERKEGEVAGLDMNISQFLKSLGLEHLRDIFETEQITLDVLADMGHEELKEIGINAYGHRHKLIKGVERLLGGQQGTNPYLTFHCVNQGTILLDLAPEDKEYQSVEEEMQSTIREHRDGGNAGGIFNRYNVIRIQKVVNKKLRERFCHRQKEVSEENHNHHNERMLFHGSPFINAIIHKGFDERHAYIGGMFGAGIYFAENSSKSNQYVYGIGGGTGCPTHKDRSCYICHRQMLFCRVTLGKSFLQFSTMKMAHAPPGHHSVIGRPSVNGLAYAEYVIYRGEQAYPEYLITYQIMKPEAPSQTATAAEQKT
Nature of the test: Binding affinity to recombinant human N-terminal GSt-tagged TNKS1 (1000 to 1328 residues) expressed in baculovirus infected Sf9 cells by surface plasmon resonance analysis.

In test [4] the target is Poly [ADP-ribose] polymerase 1 (Homo sapiens, UniProt P09874). Nature of the test: Binding affinity to recombinant human PARP1 expressed in baculovirus infected Sf9 cells by surface plasmon resonance analysis.
Test [5] concerns the target T3, Bromodomain-containing protein 9 (Homo sapiens) (UniProt Q9H8M2).
T3 sequence (whole entry): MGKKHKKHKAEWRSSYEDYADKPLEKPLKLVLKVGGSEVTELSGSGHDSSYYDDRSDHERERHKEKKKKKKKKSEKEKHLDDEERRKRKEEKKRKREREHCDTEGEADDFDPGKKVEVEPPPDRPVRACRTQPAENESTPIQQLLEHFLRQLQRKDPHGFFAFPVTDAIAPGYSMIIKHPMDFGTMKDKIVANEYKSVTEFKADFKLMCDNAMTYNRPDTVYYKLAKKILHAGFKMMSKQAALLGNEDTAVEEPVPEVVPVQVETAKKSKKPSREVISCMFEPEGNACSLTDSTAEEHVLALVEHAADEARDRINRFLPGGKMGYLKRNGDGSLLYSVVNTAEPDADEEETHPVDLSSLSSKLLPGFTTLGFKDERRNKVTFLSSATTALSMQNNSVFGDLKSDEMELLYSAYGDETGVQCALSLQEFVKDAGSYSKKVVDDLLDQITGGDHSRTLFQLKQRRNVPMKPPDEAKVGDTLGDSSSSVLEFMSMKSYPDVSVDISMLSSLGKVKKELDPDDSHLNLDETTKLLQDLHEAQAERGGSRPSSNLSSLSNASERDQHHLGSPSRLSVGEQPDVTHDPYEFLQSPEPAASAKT
Nature of the test: Binding affinity to BRD9 (unknown origin) by surface plasmon resonance analysis.

For test [6], the system named is A549. The experiment in a line: cells. The note with it: Homo sapiens, A549, 72 h.
Description: (§1) Growth inhibition of human A549 cells after 72 hrs by MTT assay
Test [7] relates to A549. Nature of the test: Antiproliferative activity against human A549 cells assessed as effect on cell viability at 100 uM after 72 hrs by MTT assay relative to control. The class given is functional.
Test [8] has as its system A549.
Description: as §1

The text below walks through data of ChEMBL document CHEMBL4229413, “Identification by Inverse Virtual Screening of magnolol-based scaffold as new tankyrase-2 inhibitors” (Bioorg Med Chem, 2018).

Calls of active or inactive are those of the source. The rule behind the calls is not given here.

Chain of Poly [ADP-ribose] polymerase 1 (P09874 whole entry): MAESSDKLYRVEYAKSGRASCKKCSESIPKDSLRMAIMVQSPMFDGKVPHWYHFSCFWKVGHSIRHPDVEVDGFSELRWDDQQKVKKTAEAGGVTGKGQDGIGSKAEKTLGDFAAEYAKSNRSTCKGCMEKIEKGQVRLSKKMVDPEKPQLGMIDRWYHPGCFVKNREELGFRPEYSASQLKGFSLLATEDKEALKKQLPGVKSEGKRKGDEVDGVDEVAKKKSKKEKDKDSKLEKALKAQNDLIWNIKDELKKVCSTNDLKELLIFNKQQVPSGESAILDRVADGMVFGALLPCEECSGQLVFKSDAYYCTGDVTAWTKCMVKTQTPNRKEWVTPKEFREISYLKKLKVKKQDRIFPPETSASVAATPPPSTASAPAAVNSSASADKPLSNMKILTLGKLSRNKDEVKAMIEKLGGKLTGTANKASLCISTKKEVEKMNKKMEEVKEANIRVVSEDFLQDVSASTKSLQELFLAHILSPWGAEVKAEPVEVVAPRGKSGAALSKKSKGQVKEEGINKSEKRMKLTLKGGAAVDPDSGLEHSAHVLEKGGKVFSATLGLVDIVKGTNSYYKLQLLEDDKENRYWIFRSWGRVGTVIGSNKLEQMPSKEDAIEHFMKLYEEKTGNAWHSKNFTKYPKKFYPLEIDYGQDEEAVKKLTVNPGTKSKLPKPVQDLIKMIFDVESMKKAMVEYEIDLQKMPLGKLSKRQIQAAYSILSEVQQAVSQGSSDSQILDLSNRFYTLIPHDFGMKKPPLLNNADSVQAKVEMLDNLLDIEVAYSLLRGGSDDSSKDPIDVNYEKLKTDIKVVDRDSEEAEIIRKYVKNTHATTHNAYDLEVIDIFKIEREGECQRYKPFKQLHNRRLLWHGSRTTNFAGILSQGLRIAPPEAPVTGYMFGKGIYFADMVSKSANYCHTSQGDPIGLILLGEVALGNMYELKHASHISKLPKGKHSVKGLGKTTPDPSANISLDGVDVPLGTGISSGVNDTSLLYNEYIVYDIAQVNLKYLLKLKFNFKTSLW
Chain of Casein kinase II alpha/beta (P67870 whole entry): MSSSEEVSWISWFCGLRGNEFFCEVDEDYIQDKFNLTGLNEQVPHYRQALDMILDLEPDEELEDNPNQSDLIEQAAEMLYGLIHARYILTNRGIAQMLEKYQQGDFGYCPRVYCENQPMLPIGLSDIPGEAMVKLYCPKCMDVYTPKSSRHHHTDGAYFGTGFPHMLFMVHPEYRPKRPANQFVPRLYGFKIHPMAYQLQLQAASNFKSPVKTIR
Chain of Casein kinase II alpha/beta (P68400 whole entry): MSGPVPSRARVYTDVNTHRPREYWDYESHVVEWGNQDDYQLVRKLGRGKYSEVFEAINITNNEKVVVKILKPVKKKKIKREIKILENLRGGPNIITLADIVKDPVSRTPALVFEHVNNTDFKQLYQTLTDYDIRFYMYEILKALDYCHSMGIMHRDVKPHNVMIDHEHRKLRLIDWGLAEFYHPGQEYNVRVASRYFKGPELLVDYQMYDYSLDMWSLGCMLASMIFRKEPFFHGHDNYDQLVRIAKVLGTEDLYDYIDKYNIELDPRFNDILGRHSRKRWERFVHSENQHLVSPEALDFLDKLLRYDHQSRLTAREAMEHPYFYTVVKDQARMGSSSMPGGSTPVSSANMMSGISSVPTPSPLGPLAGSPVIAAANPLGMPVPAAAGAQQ

Broadly, the Kd is the free concentration of one partner at which half of the binding sites on the other are occupied at equilibrium, for simple one-to-one binding. Broadly, the IC50 is the point on the concentration scale where inhibition reaches its midpoint. Regarding `C=CCc1cc(O)c(O)c(-c2cc(CC=C)cc(OC)c2O)c1`, the Kd in test [1] (read-out: Kd) was 21 nM; in test [2], “Not Active”; in test [3] (read-out: Kd), 520 nM; in test [4] (sf9), “Not Active”. Also, the result in test [5] was inactive. The IC50 in test [6] stood at 4700 nM.
With `C=CCc1ccc(O)c(-c2cc(CC=C)ccc2O)c1` [MAGNOLOL], the Kd result in test [1], in test [2], in test [3] (sf9) and in test [4] (sf9) was “Not Active” in each case. Moreover, the outcome in test [5] was inactive.
As for `Oc1nc(-c2ccc(C(F)(F)F)cc2)nc2c1CSCC2`, in test [6], the IC50 came out at 12300 nM.
In the case of `COc1cc(CCCOC(C)=O)cc(-c2cc(CCCOC(C)=O)cc(OC)c2O)c1O`, the Kd in test [1] (read-out: Kd) is 6.5 nM; in test [2] it was “Not Active”; in test [3] (sf9), “Not Active”; in test [4] (sf9) it was “Not Active”. In addition, the Activity in test [7] was 20 - 30%. Besides, in test [5], the result was inactive. In addition, the IC50 result in test [8] is recorded as “Not Active”.
Consider `COc1cc(CCCO)cc(-c2cc(CCCO)cc(OC)c2O)c1O`, for which the Kd was 18.5 nM in test [1] (read-out: Kd), “Not Active” in test [2], “Not Active” in test [3] (sf9) and “Not Active” in test [4] (sf9). In addition, the Activity in test [7] is on record as 20 - 30%. Further, the result in test [5] was inactive. For the same compound, in test [8], the IC50 entry was “Not Active”.
As to `C=CCc1ccc(O)c(-c2cc(CC=C)cc(O)c2O)c1`, the Kd entry in test [1] is “Not Active”; in test [2], “Not Active”; in test [3] (read-out: Kd) it was 5260 nM; in test [4] (read-out: Kd), 1250 nM. Moreover, the outcome in test [5] was inactive.
